Experiment [1] concerns the target T1, ANO1 (Homo sapiens, UniProt Q5XXA6, DEL476-501).
T1 sequence (Q5XXA6 with tags, fused parts or gaps isoform Q5XXA6-5 DEL539-564): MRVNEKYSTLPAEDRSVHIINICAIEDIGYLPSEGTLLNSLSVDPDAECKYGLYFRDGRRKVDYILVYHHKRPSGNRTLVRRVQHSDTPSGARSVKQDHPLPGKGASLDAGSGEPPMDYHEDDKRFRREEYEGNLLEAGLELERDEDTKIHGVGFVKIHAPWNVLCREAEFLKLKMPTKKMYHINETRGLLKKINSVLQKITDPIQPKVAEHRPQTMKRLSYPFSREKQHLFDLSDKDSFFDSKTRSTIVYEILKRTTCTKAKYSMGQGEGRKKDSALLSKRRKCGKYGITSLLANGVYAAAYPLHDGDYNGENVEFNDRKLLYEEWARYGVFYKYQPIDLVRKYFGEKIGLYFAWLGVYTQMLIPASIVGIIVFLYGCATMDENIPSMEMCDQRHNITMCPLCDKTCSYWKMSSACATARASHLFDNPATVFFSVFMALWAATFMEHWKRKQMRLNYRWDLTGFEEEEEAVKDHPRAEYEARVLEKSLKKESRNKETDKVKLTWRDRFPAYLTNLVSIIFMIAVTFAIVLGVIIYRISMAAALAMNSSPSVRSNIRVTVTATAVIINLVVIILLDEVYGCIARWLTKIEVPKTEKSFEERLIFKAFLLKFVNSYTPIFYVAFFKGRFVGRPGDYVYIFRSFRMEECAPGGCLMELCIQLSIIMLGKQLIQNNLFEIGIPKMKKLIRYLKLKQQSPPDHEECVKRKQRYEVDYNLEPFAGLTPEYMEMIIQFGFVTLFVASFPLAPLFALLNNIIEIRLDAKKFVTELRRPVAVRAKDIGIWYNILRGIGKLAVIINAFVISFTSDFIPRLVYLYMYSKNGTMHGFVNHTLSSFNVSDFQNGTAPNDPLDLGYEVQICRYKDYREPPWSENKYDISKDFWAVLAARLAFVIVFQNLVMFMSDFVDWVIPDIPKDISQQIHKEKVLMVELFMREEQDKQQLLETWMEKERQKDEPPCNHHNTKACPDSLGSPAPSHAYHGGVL
Briefly: Apical membrane (short-circuit) current in ANO1-expressing FRT cells. In kind it is cell-based. To be noted: for Block of ANO1 chloride channel current: pretreated 20 min, 100 μM ATP, FRT-ANO1 cells. The procedure: Snapwell inserts containing ANO1-expressing FRT cells were mounted in Ussing chambers (Physiologic Instruments, San Diego, CA). The basolateral bath was filled with HCO3^--buffered solution and the apical bath was filled with a half-Cl^- solution. The basolateral membrane was permeabilized with 250 μg/mL amphotericin B. The cells were bathed for a 20 min stabilization period and aerated with 95% O2 / 5%CO2 at 37°C. Luteolin and kaempferol were applied to the apical and basolateral bath solution and then ATP was added to the apical bath solution to induce intracellular calcium increase. Apical membrane currents were measured with an EVC4000 Multi-Channel V/I Clamp (World Precision Instruments, Sarasota, FL) and recorded using PowerLab 4/35 (AD Instruments, Castle Hill, Australia). Data were collected and analyzed with ADInstruments acquisition software Labchart Pro 7 software. The sampling rate was 4 Hz.

The subject of experiment [2] is PC-3 cells. The experiment is described as follows: Intracellular calcium measurement (Fluo-4) in PC-3 cells. Type of experiment: cell-based, human. Conditions: 100 μM ATP. The procedure:
Intracellular calcium levels were monitored using Fluo-4 NW calcium assay kit (Invitrogen, Carlsbad, CA) as per the manufacturer's protocol in FRT and PC-3 cells. Briefly, the cells were cultured in a 96 well plate and incubated with 100 μL assay buffer including Fluo-4 NW. After 1 hour incubation, Fluo-4 fluorescence was measured with a FLUOstar Omega microplate reader equipped with syringe pumps and custom Fluo-4 excitation/emission filters (485/538 nm). Intracellular calcium increase was induced by application of 100 μM ATP.
A general note: A change in cytosolic calcium serves as a functional read-out for many receptors and channels.

Experiment [3] relates to PC-3 cells. Briefly: Cell proliferation (MTS) assay in PC-3 cells. In kind it is cell-based, human. Conditions: 24 hour; for Inhibition of cell proliferation, high versus low ANO1 expressing PC-3 cells: 3-100 μM. As for the experimental part: PC-3 cells were seeded to a confluency of ~30% on Day 1 in 96-well plates. […] After 24 hour elapsed, the influence of luteolin and kaempferol on the cell viability was estimated by MTS assay. Briefly, the cells were reincubated with MTS for 1 hour. The soluble formazan produced by cellular reduction of MTS was quantified by measuring the absorbance at 490 nm with Infinite M200 (Tecan, Grödig, Austria) microplate reader. MTS assay was done using CellTiter 96 Aqueous One Solution Cell Proliferation Assay kit (Promega, Madison, WI).

Experiment [4] concerns ANO1. Briefly: Immunoblot of ANO1 protein levels in PC-3 cells. Type of experiment: cell-based, human. As for the experimental part:
Immunoblotting was performed as described previously. FRT and PC-3 cells were lysed with cell lysis buffer (50 mM Tris-HCl (pH 7.4), 1% Nonidet P-40, 0.25% sodium deoxycholate, 150 mM NaCl, 1 mM EDTA, 1 mM Na3VO4, and protease inhibitor mixture). Whole cell lysates were centrifuged at 15,000 g for 10 min at 4°C to remove the cell debris, and supernatant protein was separated by 4–12% Tris-glycine precast gel (KOMA BIOTECH, Seoul, Korea) and then transferred onto PVDF membrane (Millipore, Billerica, MA). Membrane was blocked with 5% non-fat skim milk in Tris-buffered saline including 0.1% Tween 20 (TBST) for 1 hour at room temperature. The membrane was then incubated overnight with primary ANO1 antibody (1:500 dilution, ab64085; Abcam Inc., Cambridge, MA). After washing three times with TBST, the blot was further incubated for 60 min at room temperature with an anti-rabbit secondary antibody (Santa Cruz Biotechnology, CA). The membrane was then washed three times with TBST and then visualized using the ECL Plus western blotting detection system (GE Healthcare, NJ).
In general terms: Immunoblotting shows a protein as a band on a membrane.

Experiment [5] deals with ANO1. The experiment is described as follows: Quantitative real-time PCR of ANO1 mRNA in PC-3 cells. Type of experiment: cell-based, human. The procedure: Total messenger RNA (mRNA) was extracted by using a TRIzol reagent (Invitrogen, Carlsbad, CA). Quantitative Real-time PCRs were performed using the StepOnePlus Real-Time PCR System (Applied Biosystems, CA) and Thunderbird SYBR qPCR mix (Toyobo, Osaka, Japan). The thermal cycling conditions comprised an initial step at 95°C for 5 minutes followed by 40 cycles at 95°C for 10 seconds, 55°C for 20 seconds, and 72°C for 10 seconds in a 96-well reaction plate. Primers used were as follows: ANO1-sense 5′-GGAGAAGCAGCATCTATTTG-3′, ANO1-antisense 5′ GATCTCATAGACAATCGTGC-3′, β-actin-sense 5′-GCAAAGACCTGTACGCCAACAC-3′ and β-actin-antisense 5′-ATCTCCTTCTGCATCCTGTC-3′. ANO1 mRNA levels were normalized to β-actin levels and the fold-change in gene expression was determined by using 2^-ΔΔCT method. Quantitative PCR experiments were carried out in triplicates.
(Quantitative PCR measures a nucleic acid by following its amplification.)

What is called IC50 is the concentration needed to halve the response being measured.

Where “and” joins values, the source holds several entries; their conditions need not be identical. Equal values may be shown once.

In the case of `O=c1c(O)c(-c2ccc(O)cc2)oc2cc(O)cc(O)c12` [Kaempferol], the “Block of ANO1 chloride channel current” value in experiment [1] (10 μM) was 36.2 ± 3.0%; in experiment [1] (30 μM), 55.0 ± 4.1%; in experiment [1] (100 μM), 89.3 ± 2.0%. Besides, the “Effect on ATP-induced intracellular calcium increase” value in experiment [2] is given as “did not alter”. For the same compound, the “Inhibition of cell proliferation, high versus low ANO1 expressing PC-3 cells” value in experiment [3] was “did not show the significant difference”. Also, the “Effect on ANO1 protein levels” value in experiment [4] (PC-3 cells expressing high levels of ANO1, 24 hour, indicated concentrations) is “did not affect”. For the same compound, the “Change of ANO1 gene expression levels” value in experiment [5] (10 μM) is on record as “slightly increased”.

Consider `O=c1cc(-c2ccc(O)c(O)c2)oc2cc(O)cc(O)c12` [luteolin], for which, in experiment [1] (100 μM, 20 min pretreatment, PAR2-AP 50 μM), the “Block of PAR2-AP-triggered ANO1 activation” value was “almost completely blocked”. In addition, the “Inhibition of ATP-induced ANO1 activation (apical current)” value in experiment [1] (100 μM, ATP 100 μM) is “almost completely inhibited”. Moreover, the IC50 in experiment [1] (FRT cells expressing ANO1, activated by 100 μM ATP, read-out: IC50, ANO1 chloride current (apical membrane current)) was 9.8 µM and 9.77 µM and ~10 µM. Further, the “Reversibility of ANO1 inhibition” value in experiment [1] (after washing 3 times for 5 min each, re-activation by 50 μM PAR2-AP) is “reversibly inhibited”. Moreover, in experiment [2], the “Effect on ATP-induced intracellular calcium increase” value was “did not alter”. The “Decrease of cell viability” value in experiment [3] (30 μM, PC-3 cells expressing high levels of ANO1) came to 52.6 ± 3.8%. In experiment [3], the “Inhibition of cell proliferation, high versus low ANO1 expressing PC-3 cells” value is given as “significantly stronger in PC-3 cells with high levels of ANO1 expression”. The “Decrease of ANO1 protein levels” value in experiment [4] (10 μM, 24 hour, PC-3 cells expressing high levels of ANO1) is listed as 41.2 ± 1.5%; in experiment [4] (30 μM, 24 hour, PC-3 cells expressing high levels of ANO1) it was 63.1 ± 5.7%. Also, the “Time-dependent change of ANO1 protein levels” value in experiment [4] (30 μM, PC-3 cells) is reported as “significantly decreased in a time-dependent manner”. The “Change of ANO1 gene expression levels” value in experiment [5] (10 μM) is given as “slightly increased”; in experiment [5] (30 μM) it was “significantly decreased”. The “Increase of ANO1 mRNA expression levels” value in experiment [5] (10 μM) is recorded as ~ 1.3 fold.

For the origin of these results see publication PMC5376326, “Inhibition of ANO1 by luteolin and its cytotoxicity in human prostate cancer PC-3 cells” (PLoS ONE, 2017).
